Where two headings read alike, the source gives them in different places.
Assays:
Assay type in all cases: biochemical
kinases [1] = target: kinases (Homo sapiens, UniProt O15075); settings: DCAMKL1 (DCLK1) FRET-Z-Lyte SP
kinases [2] = target: kinases (Homo sapiens, UniProt P19525); settings: EIF2AK2 (PKR) FRET-Lantha SP; Test Conc(μM) 1
kinases [3] = target: kinases (Homo sapiens, UniProt Q15303); settings: ERBB4 (HER4) *Mn* Z-Lyte SP; Test Conc(μM):ATP Conc(μM) 1:5
kinases [4] = target: kinases (Homo sapiens, UniProt Q96L34); settings: MARK4 FRET-Z-Lyte SP; Test Conc(μM):ATP Conc(μM) 1:10
kinases [5] = target: kinases (Homo sapiens, UniProt Q8N4C8); settings: MINK1 FRET-Z-Lyte SP; Test Conc(μM):ATP Conc(μM) 1:25
kinases [6] = target: kinases (Homo sapiens, UniProt Q9Y2H1); settings: STK38L (NDR2) FRET-Lantha SP; Test Conc(μM) 1
kinases [7] = target: kinases (Homo sapiens, UniProt P48729); settings: CSNK1A1 FRET-Z-Lyte SP; Test Conc(μM):ATP Conc(μM) 1:5
kinases [8] = target: kinases (Homo sapiens, UniProt Q9NWZ3); settings: IRAK4 *Mn* FRET-Z-Lyte SP; Test Conc(μM):ATP Conc(μM) 1:25
kinases [9] = target: kinases (Homo sapiens, UniProt Q13188); settings: STK3 (MST2) FRET-Z-Lyte SP; Test Conc(μM):ATP Conc(μM) 1:50
kinases [10] = target: kinases (Homo sapiens, UniProt P00533); settings: EGFR (ErbB1) *Mn* Z-Lyte SP; Test Conc(μM):ATP Conc(μM) 1:10
kinases [11] = target: kinases (Homo sapiens, UniProt Q8TDC3); settings: BRSK1 (SAD1) FRET-Z-Lyte SP; Test Conc(μM):ATP Conc(μM) 1:25
kinases [12] = target: kinases (Homo sapiens, UniProt P36896); settings: ACVR1B (ALK4) *Mn* Z-Lyte SP; Test Conc(μM):ATP Conc(μM) 1:5
kinases [13] = target: kinases (Homo sapiens, UniProt P48736); settings: PIK3CG (p110 gamma) Adapta SP; Test Conc(μM):ATP Conc(μM) 1:25
kinases [14] = target: kinases (Homo sapiens, UniProt Q8IW41); settings: MAPKAPK5 (PRAK) FRET-Z-Lyte SP; Test Conc(μM):ATP Conc(μM) 1:10
kinases [15] = target: kinases (Homo sapiens, UniProt Q8IY84); settings: NIM1K FRET-Z-Lyte SP; Test Conc(μM):ATP Conc(μM) 1:10
kinases [16] = target: kinases (Homo sapiens, UniProt Q9Y2K2); settings: SIK3 FRET-Lantha SP; Test Conc(μM) 1
kinases [17] = target: kinases (Homo sapiens, UniProt Q16539)
kinases [18] = target: kinases (Homo sapiens, UniProt Q05513); settings: PRKCZ (PKC zeta) Z-Lyte SP; Test Conc(μM):ATP Conc(μM) 1:5
kinases [19] = target: kinases (Homo sapiens, UniProt O14965); settings: AURKA (Aurora A) Z-Lyte SP; Test Conc(μM):ATP Conc(μM) 1:10
kinases [20] = target: kinases (Homo sapiens, UniProt P29323); settings: EPHB2 FRET-Z-Lyte SP; Test Conc(μM):ATP Conc(μM) 1:75
kinases [21] = target: kinases (Homo sapiens, UniProt Q14004); settings: Test Conc(μM) 1
kinases [22] = target: kinases (Homo sapiens, UniProt Q9P0L2); settings: MARK1 (MARK) FRET-Z-Lyte SP; Test Conc(μM):ATP Conc(μM) 1:5
kinases [23] = target: kinases (Homo sapiens, UniProt O14920); settings: IKBKB (IKKbeta) FRET-Z-Lyte SP; Test Conc(μM):ATP Conc(μM) 1:5
kinases [24] = target: kinases (Homo sapiens, UniProt Q9UQB9); settings: AURKC (Aurora C) Z-Lyte SP; Test Conc(μM):ATP Conc(μM) 1:25
kinases [25] = target: kinases (Homo sapiens, UniProt Q9NRM7); settings: LATS2 FRET-Lantha SP; Test Conc(μM) 1
kinases [26] = target: kinases (Homo sapiens, UniProt Q15349); settings: RPS6KA2 (RSK3) FRET-Z-Lyte SP; Test Conc(μM):ATP Conc(μM) 1:10
kinases [27] = target: kinases (Homo sapiens, UniProt P45985); settings: MAP2K4 (MEK4) FRET-Lantha SP; Test Conc(μM) 1
kinases [28] = target: kinases (Homo sapiens, UniProt O75747); settings: PIK3C2G FRET-Adapta SP; Test Conc(μM):ATP Conc(μM) 1:10
[29] = MAPK14 (p38a) Direct Z-Lyte SP, Test Conc(μM):ATP Conc(μM) 1:500
[30] = MAPK14 (p38a)Cascade Z-Lyte SP, Test Conc(μM):ATP Conc(μM) 1:100

kinases (Homo sapiens, UniProt Q16539), sequence (Q16539 whole entry): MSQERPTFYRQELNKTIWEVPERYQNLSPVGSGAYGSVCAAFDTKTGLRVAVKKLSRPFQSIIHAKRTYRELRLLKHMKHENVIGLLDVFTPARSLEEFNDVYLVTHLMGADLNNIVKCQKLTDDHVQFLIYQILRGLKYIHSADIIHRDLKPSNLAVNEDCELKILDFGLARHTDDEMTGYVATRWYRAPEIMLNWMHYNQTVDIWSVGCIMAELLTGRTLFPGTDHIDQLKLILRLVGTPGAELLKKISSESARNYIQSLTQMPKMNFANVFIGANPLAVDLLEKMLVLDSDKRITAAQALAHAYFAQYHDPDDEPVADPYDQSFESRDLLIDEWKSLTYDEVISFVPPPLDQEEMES
kinases (Homo sapiens, UniProt P00533), sequence (P00533 25-1210): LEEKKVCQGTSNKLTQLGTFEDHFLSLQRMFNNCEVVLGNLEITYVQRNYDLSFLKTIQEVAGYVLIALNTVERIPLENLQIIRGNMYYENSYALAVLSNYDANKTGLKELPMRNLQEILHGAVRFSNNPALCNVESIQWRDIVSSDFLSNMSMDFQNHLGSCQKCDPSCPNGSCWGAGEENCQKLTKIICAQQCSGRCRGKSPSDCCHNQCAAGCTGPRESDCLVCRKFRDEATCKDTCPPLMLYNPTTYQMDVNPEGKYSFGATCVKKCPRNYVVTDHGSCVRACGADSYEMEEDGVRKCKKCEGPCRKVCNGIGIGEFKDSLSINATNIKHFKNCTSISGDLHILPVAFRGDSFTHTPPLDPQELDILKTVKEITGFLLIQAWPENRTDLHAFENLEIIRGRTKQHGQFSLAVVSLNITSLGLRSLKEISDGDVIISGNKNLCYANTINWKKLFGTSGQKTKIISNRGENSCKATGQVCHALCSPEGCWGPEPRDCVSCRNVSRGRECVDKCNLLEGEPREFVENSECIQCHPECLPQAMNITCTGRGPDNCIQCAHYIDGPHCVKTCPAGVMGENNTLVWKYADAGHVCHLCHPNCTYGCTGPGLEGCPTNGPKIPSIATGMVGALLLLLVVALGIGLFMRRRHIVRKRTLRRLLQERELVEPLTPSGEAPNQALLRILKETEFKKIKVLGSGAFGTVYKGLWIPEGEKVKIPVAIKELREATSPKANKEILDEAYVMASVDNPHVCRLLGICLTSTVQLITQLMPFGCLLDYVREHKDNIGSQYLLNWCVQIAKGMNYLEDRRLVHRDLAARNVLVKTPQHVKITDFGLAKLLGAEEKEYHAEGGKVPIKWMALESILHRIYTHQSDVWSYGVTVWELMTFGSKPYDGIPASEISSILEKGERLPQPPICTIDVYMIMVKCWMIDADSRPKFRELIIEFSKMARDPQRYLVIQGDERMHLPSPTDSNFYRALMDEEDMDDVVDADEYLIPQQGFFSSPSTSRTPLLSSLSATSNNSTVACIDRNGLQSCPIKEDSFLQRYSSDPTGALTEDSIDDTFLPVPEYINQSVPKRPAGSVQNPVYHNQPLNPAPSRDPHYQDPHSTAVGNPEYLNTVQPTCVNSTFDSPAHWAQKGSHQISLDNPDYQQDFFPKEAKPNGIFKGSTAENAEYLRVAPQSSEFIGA
kinases (Homo sapiens, UniProt Q96L34), sequence (Q96L34 whole entry): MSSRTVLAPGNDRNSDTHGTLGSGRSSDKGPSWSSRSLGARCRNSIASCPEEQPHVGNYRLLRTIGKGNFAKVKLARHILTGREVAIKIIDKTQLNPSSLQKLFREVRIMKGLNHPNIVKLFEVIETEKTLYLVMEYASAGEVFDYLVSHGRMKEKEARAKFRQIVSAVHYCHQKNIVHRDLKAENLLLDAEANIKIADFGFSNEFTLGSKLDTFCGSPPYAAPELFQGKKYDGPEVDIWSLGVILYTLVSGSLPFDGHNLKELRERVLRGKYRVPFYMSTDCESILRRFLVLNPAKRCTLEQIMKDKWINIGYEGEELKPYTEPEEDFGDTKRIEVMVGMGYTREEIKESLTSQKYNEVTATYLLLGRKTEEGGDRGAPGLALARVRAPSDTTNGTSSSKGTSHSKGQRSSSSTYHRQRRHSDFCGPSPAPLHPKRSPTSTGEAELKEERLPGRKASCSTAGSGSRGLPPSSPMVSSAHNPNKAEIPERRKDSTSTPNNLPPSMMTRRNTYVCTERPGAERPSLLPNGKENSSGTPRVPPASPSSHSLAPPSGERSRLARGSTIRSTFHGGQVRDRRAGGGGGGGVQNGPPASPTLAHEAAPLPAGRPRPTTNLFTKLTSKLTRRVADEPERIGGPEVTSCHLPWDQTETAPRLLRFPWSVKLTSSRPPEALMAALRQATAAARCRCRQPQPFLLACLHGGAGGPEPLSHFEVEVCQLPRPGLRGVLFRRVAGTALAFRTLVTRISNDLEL
kinases (Homo sapiens, UniProt P19525), sequence (P19525 whole entry): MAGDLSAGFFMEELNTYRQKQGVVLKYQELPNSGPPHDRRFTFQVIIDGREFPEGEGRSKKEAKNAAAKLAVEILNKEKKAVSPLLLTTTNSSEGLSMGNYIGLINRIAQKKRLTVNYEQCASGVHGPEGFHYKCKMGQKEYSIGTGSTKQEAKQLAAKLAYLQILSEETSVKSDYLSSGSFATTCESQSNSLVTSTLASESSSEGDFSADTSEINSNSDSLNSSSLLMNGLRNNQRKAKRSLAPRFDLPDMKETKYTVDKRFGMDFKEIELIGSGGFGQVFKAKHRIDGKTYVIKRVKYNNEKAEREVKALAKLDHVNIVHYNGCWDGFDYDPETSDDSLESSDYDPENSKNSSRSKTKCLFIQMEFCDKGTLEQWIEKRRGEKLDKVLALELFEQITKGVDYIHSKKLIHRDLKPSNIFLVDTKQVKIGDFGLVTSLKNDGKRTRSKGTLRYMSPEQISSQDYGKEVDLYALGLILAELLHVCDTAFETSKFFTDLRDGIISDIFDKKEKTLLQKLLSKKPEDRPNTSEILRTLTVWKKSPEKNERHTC
kinases (Homo sapiens, UniProt Q05513), sequence (Q05513 whole entry): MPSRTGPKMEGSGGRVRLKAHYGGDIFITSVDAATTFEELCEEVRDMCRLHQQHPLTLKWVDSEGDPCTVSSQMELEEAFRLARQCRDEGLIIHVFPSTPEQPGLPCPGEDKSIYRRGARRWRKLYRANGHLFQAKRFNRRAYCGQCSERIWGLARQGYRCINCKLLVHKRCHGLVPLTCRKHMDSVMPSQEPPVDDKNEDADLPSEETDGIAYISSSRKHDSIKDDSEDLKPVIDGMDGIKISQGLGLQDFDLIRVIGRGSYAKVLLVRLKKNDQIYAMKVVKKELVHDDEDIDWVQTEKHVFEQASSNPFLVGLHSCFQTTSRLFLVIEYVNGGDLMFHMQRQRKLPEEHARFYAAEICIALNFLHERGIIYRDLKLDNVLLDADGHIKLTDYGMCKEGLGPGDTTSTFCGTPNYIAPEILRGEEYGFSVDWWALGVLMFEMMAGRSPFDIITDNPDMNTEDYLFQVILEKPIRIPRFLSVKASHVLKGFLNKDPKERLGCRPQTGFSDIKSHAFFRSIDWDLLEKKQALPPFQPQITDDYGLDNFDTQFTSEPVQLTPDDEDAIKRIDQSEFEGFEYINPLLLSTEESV
kinases (Homo sapiens, UniProt Q9P0L2), sequence (Q9P0L2 whole entry): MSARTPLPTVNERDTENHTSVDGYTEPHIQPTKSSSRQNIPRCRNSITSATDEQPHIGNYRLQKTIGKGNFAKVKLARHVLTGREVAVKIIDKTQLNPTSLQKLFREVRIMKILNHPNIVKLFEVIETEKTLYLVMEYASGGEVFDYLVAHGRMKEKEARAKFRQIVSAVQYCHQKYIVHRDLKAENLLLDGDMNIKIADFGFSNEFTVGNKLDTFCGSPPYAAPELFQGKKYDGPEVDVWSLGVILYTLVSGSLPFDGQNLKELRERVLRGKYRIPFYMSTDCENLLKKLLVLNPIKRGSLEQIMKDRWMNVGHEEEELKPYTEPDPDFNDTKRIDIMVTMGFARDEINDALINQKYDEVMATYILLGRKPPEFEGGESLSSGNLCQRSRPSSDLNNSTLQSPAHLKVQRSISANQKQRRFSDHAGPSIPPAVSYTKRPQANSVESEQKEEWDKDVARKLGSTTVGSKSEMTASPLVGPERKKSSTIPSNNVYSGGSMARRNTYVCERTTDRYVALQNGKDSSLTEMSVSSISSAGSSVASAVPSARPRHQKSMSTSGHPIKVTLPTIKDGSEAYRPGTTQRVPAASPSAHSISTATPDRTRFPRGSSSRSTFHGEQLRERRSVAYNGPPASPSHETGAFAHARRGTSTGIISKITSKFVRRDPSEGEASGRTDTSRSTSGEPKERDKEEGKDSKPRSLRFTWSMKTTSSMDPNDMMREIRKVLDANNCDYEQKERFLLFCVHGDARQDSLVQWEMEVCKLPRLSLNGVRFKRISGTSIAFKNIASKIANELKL
kinases (Homo sapiens, UniProt Q8IW41), sequence (Q8IW41 whole entry): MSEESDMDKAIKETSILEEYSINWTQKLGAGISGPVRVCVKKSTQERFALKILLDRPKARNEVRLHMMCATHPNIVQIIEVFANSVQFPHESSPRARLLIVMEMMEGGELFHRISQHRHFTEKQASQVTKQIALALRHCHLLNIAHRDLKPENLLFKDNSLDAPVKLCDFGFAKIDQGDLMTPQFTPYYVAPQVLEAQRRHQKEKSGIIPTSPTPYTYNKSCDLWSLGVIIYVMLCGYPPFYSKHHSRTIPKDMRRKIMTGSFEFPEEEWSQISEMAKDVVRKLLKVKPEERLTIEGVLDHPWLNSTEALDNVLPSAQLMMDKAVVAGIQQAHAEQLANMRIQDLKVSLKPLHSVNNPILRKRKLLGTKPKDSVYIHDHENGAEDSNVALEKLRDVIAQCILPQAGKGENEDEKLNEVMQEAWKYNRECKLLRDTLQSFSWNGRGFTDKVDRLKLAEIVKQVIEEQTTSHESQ
kinases (Homo sapiens, UniProt Q9UQB9), sequence (Q9UQB9 whole entry): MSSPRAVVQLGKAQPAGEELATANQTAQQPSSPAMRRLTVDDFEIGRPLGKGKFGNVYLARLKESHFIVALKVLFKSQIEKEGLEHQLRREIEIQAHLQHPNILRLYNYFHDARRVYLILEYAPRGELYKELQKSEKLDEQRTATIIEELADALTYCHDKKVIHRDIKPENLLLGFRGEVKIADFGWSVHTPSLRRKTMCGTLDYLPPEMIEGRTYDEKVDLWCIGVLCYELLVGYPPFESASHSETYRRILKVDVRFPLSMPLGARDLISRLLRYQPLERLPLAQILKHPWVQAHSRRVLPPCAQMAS

`Cc1ccc(NC(=O)c2ccnc(N3CCOCC3)c2)cc1Nc1ccnc(N2CC(C)OC(C)C2)n1` (stereo not shown) [compound 3] was tested, and the “Mean Inhib (%)” value (kinases [1]; Test Conc(μM):ATP Conc(μM) 1:300) was 31.0%, the “Mean Inhib (%)” value (kinases [2]) was 2.8% and the “Mean Inhib (%)” value (kinases [3]) was 0.8%. The “Mean Inhib (%)” value (kinases [4]) was 0.2%, the “Mean Inhib (%)” value (kinases [5]) was 1.6% and the “Mean Inhib (%)” value (kinases [6]) was 15.6%. For the same compound, the “Mean Inhib (%)” value (kinases [7]) was 4.2%, the “Mean Inhib (%)” value (kinases [8]) was 12.7% and the “Mean Inhib (%)” value (kinases [9]) was 6.9%. For the same compound, the “Mean Inhib (%)” value (kinases [10]) was 1.5%, the “Mean Inhib (%)” value (kinases [11]) was 2.2% and the “Mean Inhib (%)” value (kinases [12]) was 6.8%. For the same compound, the “Mean Inhib (%)” value (kinases [13]) was 7.4%, the “Mean Inhib (%)” value (kinases [14]) was −1.3% and the “Mean Inhib (%)” value (kinases [15]) was −0.9%. For the same compound, the “Mean Inhib (%)” value (kinases [16]) was 5.6%, the “Mean Inhib (%)” value (kinases [17]; [29]) was 79.8% and the “Mean Inhib (%)” value (kinases [17]; [30]) was 59.0%. For the same compound, the “Mean Inhib (%)” value (kinases [18]) was 12.0%, the “Mean Inhib (%)” value (kinases [19]) was −2.7% and the “Mean Inhib (%)” value (kinases [20]) was 6.1%. The “Mean Inhib (%)” value (kinases [21]; CDK13 Cyclin K FRET-Lantha SP) was 5.4%, the “Mean Inhib (%)” value (kinases [22]) was 16.9% and the “Mean Inhib (%)” value (kinases [23]) was 0.6%. For the same compound, the “Mean Inhib (%)” value (kinases [24]) was 9.3%, the “Mean Inhib (%)” value (kinases [25]) was 0.5% and the “Mean Inhib (%)” value (kinases [26]) was 9.0%. For the same compound, the “Mean Inhib (%)” value (kinases [27]) was −9.5% and the “Mean Inhib (%)” value (kinases [28]) was 5.6%.
`Cc1cc(Oc2ccnc(Nc3ccc(S(N)(=O)=O)cc3)c2)c(-c2ccccn2)nc1C` [compound 65] was tested, and the “Mean Inhib (%)” value (kinases [1]; Test Conc(μM):ATP Conc(μM) 0.25) was 11.8%, the “Mean Inhib (%)” value (kinases [2]) was 3.6% and the “Mean Inhib (%)” value (kinases [3]) was 3.4%. For the same compound, the “Mean Inhib (%)” value (kinases [4]) was 1.4%, the “Mean Inhib (%)” value (kinases [5]) was 19.9% and the “Mean Inhib (%)” value (kinases [6]) was 5.5%. For the same compound, the “Mean Inhib (%)” value (kinases [7]) was 4.1%, the “Mean Inhib (%)” value (kinases [8]) was 6.8% and the “Mean Inhib (%)” value (kinases [9]) was 1.1%. For the same compound, the “Mean Inhib (%)” value (kinases [10]) was −1.9%, the “Mean Inhib (%)” value (kinases [11]) was 4.7% and the “Mean Inhib (%)” value (kinases [12]) was 97.8%. For the same compound, the “Mean Inhib (%)” value (kinases [13]) was 9.1%, the “Mean Inhib (%)” value (kinases [14]) was 1.9% and the “Mean Inhib (%)” value (kinases [15]) was −0.4%. For the same compound, the “Mean Inhib (%)” value (kinases [16]) was −4.7%, the “Mean Inhib (%)” value (kinases [17]; [29]) was 19.9% and the “Mean Inhib (%)” value (kinases [17]; [30]) was 13.5%. The “Mean Inhib (%)” value (kinases [18]) was −22.4%, the “Mean Inhib (%)” value (kinases [19]) was 7.2% and the “Mean Inhib (%)” value (kinases [20]) was 58.7%. For the same compound, the “CDK13 Cyclin K FRET-Lantha SP Mean Mean Inhib (%)” value (kinases [21]; CDK13 Cyclin K) was 4.1%, the “Mean Inhib (%)” value (kinases [22]) was 5.7% and the “Mean Inhib (%)” value (kinases [23]) was −2.5%. The “Mean Inhib (%)” value (kinases [24]) was 4.2%, the “Mean Inhib (%)” value (kinases [25]) was 4.9% and the “Mean Inhib (%)” value (kinases [26]) was 0.2%. The “Mean Inhib (%)” value (kinases [27]) was 14.1% and the “Mean Inhib (%)” value (kinases [28]) was 0.4%.
